# Data published in patent EP4678638A1, “NEW E3 UBIQUITIN LIGASE LIGAND, PROTEIN DEGRADATION AGENT AND USE THEREOF” (priority 2023, dated 2024).
# Where two headings read alike, the source gives them in different places.
# Key:
# CCRF-CEM = experiment: CCK-8 proliferation, CCRF-CEM; format: cell-based, Human; conditions: Homo sapiens, CCRF-CEM; CCK-8; 96 hours; read-out: Inhibitory activity (IC50) on tumor cell proliferation, CCRF-CEM
# Method: (§1) The tumor cells used herein were cultured in a cell culture medium listed in table A1 at 37°C in an incubator with 5% CO2. Prior to experimentation, all cell lines used were correctly identified by STR profiling, and tested negative for mycoplasma contamination using a mycoplasma detection kit through routine screenings. Table A1. Tumor cells and cell culture medium used in the present disclosure
# (§2) IC50 values of the compounds of the present disclosure (including the compounds in Table 1, and compounds of examples) were measured using the Meilun Cell Counting Kit-8 kit from Dalian Meilun Biotech Co., Ltd. Assay details are as follows: tumor cells were seeded in a 96-well plate at a density listed in Table A2. After 24h, 100 µL of the inoculated cells were treated with 0.5µL of the compounds of the present disclosure (including the compounds in Tables 1 and 2, and compounds of examples) at 10 different successively decreasing concentrations (starting at the highest concentration of 10µM; 5-fold serial dilutions). After the cells were treated with the compounds of the present disclosure for a period of time, the cell viability detection reagent was added to the culture medium for cell viability assessment according to the instructions provided with the CCK-8 kit. […] The growth inhibition of the compounds of the present disclosure on cells was plotted by Prism Graphpad software, and the IC50 values of the compounds of the present disclosure were calculated therefrom. […] Seeding protocol and treatment time for tumor cells
# MV-4-11 = experiment: CCK-8 proliferation, MV-4-11; format: cell-based, Human; conditions: Homo sapiens, MV4-11
# Method: as §1, §2
# CDK4 = target: T1, CDK4 (Homo sapiens, UniProt P11802); experiment: Western blot degradation of CDK4 (MDA-MB-231 Cell); format: cell-based; conditions: Table D3
# T1 construct: evaluate the effects of the compounds of the present disclosure on the expression of target proteins in cells; endogenous in cells; host or cells: MDA-MB-231
# T1 sequence (P11802 whole entry): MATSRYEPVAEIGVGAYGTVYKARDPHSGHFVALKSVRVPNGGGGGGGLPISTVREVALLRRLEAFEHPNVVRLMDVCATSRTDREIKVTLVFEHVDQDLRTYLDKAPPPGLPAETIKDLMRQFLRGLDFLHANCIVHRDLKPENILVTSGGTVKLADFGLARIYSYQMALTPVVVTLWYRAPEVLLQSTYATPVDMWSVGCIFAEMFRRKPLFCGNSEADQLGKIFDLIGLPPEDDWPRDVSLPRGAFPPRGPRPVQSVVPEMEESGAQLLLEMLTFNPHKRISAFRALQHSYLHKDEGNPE
# Method: (§3) Conventional Western blot assay was performed to evaluate the effects of the compounds of the present disclosure on the expression of target proteins in cells.
# (§4) (1) Cell Seeding and Protein Harvesting: The selected cells were processed according to the cell seeding procedure and protein harvesting procedure in Table III-2. Table III-2 Cell Seeding and Protein Harvesting Procedures
# (§5) (2) To the collected supernatant, 5X SDS sample loading buffer was added, followed by denaturation at 95°C for 5 minutes. The denatured samples were then separated by SDS-PAGE electrophoresis on a polyacrylamide gel. Proteins were transferred to a nitrocellulose membrane (0.45 µm NC membrane), blocked with blocking buffer at room temperature for 1 hour, and subjected to antibody incubation and development procedures according to the antibody manufacturer's instructions (Cell Signaling Technology).
# (§6) Half-Maximal Degradation Concentration value (the drug concentration required for degrading proteins by 50%, abbreviated as DC50) reads method: comparing the grayscale values of Western blot bands from drug-treated samples with those from blank DMSO-treated controls, and identifying the drug concentration range at which the grayscale value is half that of the DMSO-treated control bands.
# (§7) DC50 values can be calculated using ImageJ software to measure grayscale values of Western blot bands from drug-treated samples. The concentration-response curve is fitted to estimate the drug concentration corresponding to half the grayscale value.
# (§8) Target protein remaining (%) refers to the percentage of target protein remaining in hPBMC cells after treatment with protein degrader compounds.
# (§9) Calculation method for target protein remaining (%): Use ImageJ software to measure grayscale values of Western blot bands from drug (protein degrader)-treated samples. The grayscale value of drug-treated bands is divided by that of internal control protein bands, and the resulting quotient is normalized to obtain the relative percentage of remaining target protein after protein degrader treatment.
# (§10) Target protein degradation rate (%) = 100% - target protein remaining (%).
# CDK6 = target: T2, CDK6 (Homo sapiens, UniProt Q00534); experiment: Western blot degradation of CDK6 (MDA-MB-231 Cell); format: cell-based; conditions: Table D3
# T2 construct: evaluate the effects of the compounds of the present disclosure on the expression of target proteins in cells; endogenous in cells; host or cells: MDA-MB-231
# T2 sequence (Q00534 whole entry): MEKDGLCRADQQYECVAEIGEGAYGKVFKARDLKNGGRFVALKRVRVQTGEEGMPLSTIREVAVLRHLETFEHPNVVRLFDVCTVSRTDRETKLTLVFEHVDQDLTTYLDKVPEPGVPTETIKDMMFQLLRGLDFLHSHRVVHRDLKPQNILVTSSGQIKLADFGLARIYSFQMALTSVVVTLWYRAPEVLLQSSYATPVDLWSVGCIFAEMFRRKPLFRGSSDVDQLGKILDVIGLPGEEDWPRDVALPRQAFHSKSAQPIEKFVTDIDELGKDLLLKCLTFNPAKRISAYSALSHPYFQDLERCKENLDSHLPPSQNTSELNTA
# Method: as §3, §4, §5, §6, §7, §8, §9, §10
# PC-9 = experiment: CCK-8 proliferation, PC-9; format: cell-based, Human; conditions: Homo sapiens, PC-9; CCK-8; 96 hours; read-out: Inhibitory activity (IC50) on tumor cell proliferation, PC-9
# Method: as §1, §2
# H2228 = experiment: CCK-8 proliferation, NCI-H2228 (H2228); format: cell-based; conditions: Homo sapiens, NCI-H2228; CCK-8; 96 hours; read-out: Inhibitory activity (IC50) on tumor cell proliferation, H2228
# In short: (§11)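 Tumor cells were cultured at 37°C with 5% CO2, seeded, and after 24h treated with compounds at 10 concentrations starting at 10µM (5-fold serial dilutions).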
# H1975 = experiment: CCK-8 proliferation, NCI-H1975 (H1975); format: cell-based, Human; conditions: Homo sapiens, NCI-H1975; CCK-8; 96 hours; read-out: Inhibitory activity (IC50) on tumor cell proliferation, H1975
# In short: as §11
# SR = experiment: CCK-8 proliferation, SR; format: cell-based, Human; conditions: Homo sapiens; Table B10, compounds designed based on the IRAK4 inhibitors; SR cells; read-out: Inhibitory activity (IC50, nM) on tumor cell proliferation, SR
# In short: as §11
# [1] = CCK-8, 72 or 96 hours, read-out: Inhibitory activity (IC50) on tumor cell proliferation, MV-4-11
# [2] = Table B10, compounds designed based on the IRAK4 inhibitors, MV-4-11 cells, read-out: Inhibitory activity (IC50, nM) on tumor cell proliferation, MV-4-11
SMILES,IC50 (PC-9) [nM],IC50 (H2228) [nM],IC50 (H1975) [nM],further results
"Nc1nc(Nc2ccc(S(=O)(=O)N3CCN(Cc4ccc(N5CCC(=O)NC5=O)nc4)CC3)cc2)nn1C(=O)c1c(F)cccc1F [GT-06754, 1-(5-((4-((4-((5-amino-1-(2,6-difluorobenzoyl)-1H-1,2,4-triazol-3-yl)amino)phenyl)sulfonyl)piperazin-1-yl)methyl)pyridin-2-yl)dihydropyrimidine-2,4(1H,3H)-dione]",–,–,–,IC50 (CCRF-CEM): 500 to 1000 nM; IC50 (MV-4-11; [1]): 500 to 1000 nM
"CN(C)C(=O)c1cc2cnc(Nc3ccc(N4CCN(Cc5cccc(N6CCC(=O)NC6=O)c5)CC4)cn3)nc2n1C1CCCC1 [GT-06341, 7-cyclopentyl-2-((5-(4-(3-(2,4-dioxotetrahydropyrimidin-1(2H)-yl)benzyl)piperazin-1-yl)pyridin-2-yl)amino)-N,N-dimethyl-7H-pyrrolo[2,3-d]pyrimidine-6-carboxamide]",–,–,–,Degradation of substrate protein CDK4 (substrate protein remaining %) (CDK4): A (A is defined as 0% ≤ substrate protein remaining % ≤ 80%); Degradation of substrate protein CDK6 (substrate protein remaining %) (CDK6): A (A is defined as 0% ≤ substrate protein remaining % ≤ 80%)
"CN(C)C(=O)c1cc2cnc(Nc3ccc(N4CCC(N(C)Cc5cccc(N6CCC(=O)NC6=O)c5)CC4)cn3)nc2n1C1CCCC1 [GT-06492, 7-cyclopentyl-2-((5-(4-((3-(2,4-dioxotetrahydropyrimidin-1(2H)-yl)benzyl)(methyl)amino)piperidin-1-yl)pyridin-2-yl)amino)-N,N-dimethyl-7H-pyrrolo[2,3-d]pyrimidine-6-carboxamide]",–,–,–,Degradation of substrate protein CDK4 (substrate protein remaining %) (CDK4): B (B is defined as substrate protein remaining % > 80%); Degradation of substrate protein CDK6 (substrate protein remaining %) (CDK6): A (A is defined as 0% ≤ substrate protein remaining % ≤ 80%)
"Nc1nc(Nc2ccc(S(=O)(=O)N3CCN(Cc4ccc(N5CCC(=O)NC5=O)cc4)CC3)cc2)nn1C(=O)c1c(F)cccc1F [GT-06751, 1-(4-((4-((4-((5-amino-1-(2,6-difluorobenzoyl)-1H-1,2,4-triazol-3-yl)amino)phenyl)sulfonyl)piperazin-1-yl)methyl)phenyl)dihydropyrimidine-2,4(1H,3H)-dione]",–,–,–,IC50 (CCRF-CEM): 500 to 1000 nM; IC50 (MV-4-11; [1]): 500 to 1000 nM
"NC(=O)c1ncc(N2CCCCC2)nc1Nc1ccc(C2CCN(Cc3ccc(N4CCC(=O)NC4=O)cc3)CC2)cc1 [GT-04789, 3-((4-(1-(4-(2,4-dioxotetrahydropyrimidin-1(2H)-yl)benzyl)piperidin-4-yl)phenyl)amino)-5-(piperidin-1-yl)pyrazine-2-carboxamide]",100 to 500,100 to 500,500 to 1000,–
"NC(=O)c1ncc(N2CCCCC2)nc1Nc1ccc(C2CCN(Cc3ccc(C4CCC(=O)NC4=O)c(F)c3)CC2)cc1 (stereo not drawn) [GT-04786, 3-((4-(1-(4-(2,6-dioxopiperidin-3-yl)-3-fluorobenzyl)piperidin-4-yl)phenyl)amino)-5-(piperidin-1-yl)pyrazine-2-carboxamide]",500 to 1000,100 to 500,500 to 1000,–
"O=C1CCN(c2ccc(CN3CCC(n4cc(NC(=O)c5cnn6ccc(N7CCOCC7)nc56)c(C(F)F)n4)CC3)cc2F)C(=O)N1 [GT-03814, N-(3-(difluoromethyl)-1-(1-(4-(2,4-dioxotetrahydropyrimidin-1(2H)-yl)-3-fluorobenzyl)piperidin-4-yl)-1H-pyrazol-4-yl)-5-morpholinopyrazolo[1,5-a]pyrimidine-3-carboxamide]",–,–,–,IC50 (MV-4-11; [2]): 100 to 500 nM
"O=C1CCC(c2ccc(CN3CCC(n4cc(NC(=O)c5cnn6ccc(N7CCOCC7)nc56)c(C(F)F)n4)CC3)cc2)C(=O)N1 (stereo not drawn) [GT-03813, N-(3-(difluoromethyl)-1-(1-(4-(2,6-dioxopiperidin-3-yl)benzyl)piperidin-4-yl)-1H-pyrazol-4-yl)-5-morpholinopyrazolo[1,5-a]pyrimidine-3-carboxamide]",–,–,–,IC50 (SR): 100 to 500 nM; IC50 (MV-4-11; [2]): 100 to 500 nM
"NC(=O)c1ncc(N2CCCCC2)nc1Nc1ccc(C2CCN(Cc3ccc(N4CCC(=O)NC4=O)c(F)c3)CC2)cc1 [GT-04788, 3-((4-(1-(4-(2,4-dioxotetrahydropyrimidin-1(2H)-yl)-3-fluorobenzyl)piperidin-4-yl)phenyl)amino)-5-(piperidin-1-yl)pyrazine-2-carboxamide]",100 to 500,100 to 500,500 to 1000,–
"Cc1cc(S(=O)(=O)N2CCN(Cc3ccc(C4CCC(=O)NC4=O)cc3)CC2)ccc1Nc1ncc(Br)c(Nc2cccc(F)c2C(N)=O)n1 (stereo not drawn) [GT-06830, 2-((5-bromo-2-((4-((4-(4-(2,6-dioxopiperidin-3-yl)benzyl)piperazin-1-yl)sulfonyl)-2-methylphenyl)amino)pyrimidin-4-yl)amino)-6-fluorobenzamide]",–,–,–,IC50 (MV-4-11; [1]): 100 to 500 nM
"Cc1ccsc1C(=O)n1nc(Nc2ccc(S(=O)(=O)N3CCN(Cc4ccc(N5CCC(=O)NC5=O)cn4)CC3)cc2)nc1N [GT-06860, 1-(6-((4-((4-((5-amino-1-(3-methylthiophene-2-carbonyl)-1H-1,2,4-triazol-3-yl)amino)phenyl)sulfonyl)piperazin-1-yl)methyl)pyridin-3-yl)dihydropyrimidine-2,4(1H,3H)-dione]",–,–,–,IC50 (MV-4-11; [1]): 100 to 500 nM

# The next lines start with results.
IC50 (PC-9) [nM],IC50 (H2228) [nM],IC50 (H1975) [nM],SMILES,further results
500 to 1000,500 to 1000,–,"CN1CCN([C@@H]2CCCN(c3cnc(C(N)=O)c(Nc4ccc(C5CCN(Cc6ccc(C7CCC(=O)NC7=O)c(F)c6)CC5)cc4)n3)C2)C1=O (stereo partly drawn) [GT-04799, 3-((4-(1-(4-(2,6-dioxopiperidin-3-yl)-3-fluorobenzyl)piperidin-4-yl)phenyl)amino)-5-((R)-3-(3-methyl-2-oxoimidazolidin-1-yl)piperidin-1-yl)pyrazine-2-carboxamide]",–
100 to 500,500 to 1000,500 to 1000,"CN1CCN([C@@H]2CCCN(c3cnc(C(N)=O)c(Nc4ccc(C5CCN(Cc6ccc(C7CCC(=O)NC7=O)cc6)CC5)cc4)n3)C2)C1=O (stereo partly drawn) [GT-04798, 3-((4-(1-(4-(2,6-dioxopiperidin-3-yl)benzyl)piperidin-4-yl)phenyl)amino)-5-((R)-3-(3-methyl-2-oxoimidazolidin-1-yl)piperidin-1-yl)pyrazine-2-carboxamide]",–
100 to 500,100 to 500,500 to 1000,"CN1CCN([C@@H]2CCCN(c3cnc(C(N)=O)c(Nc4ccc(C5CCN(Cc6ccc(N7CCC(=O)NC7=O)c(F)c6)CC5)cc4)n3)C2)C1=O [GT-04801, (R)-3-((4-(1-(4-(2,4-dioxotetrahydropyrimidin-1(2H)-yl)-3-fluorobenzyl)piperidin-4-yl)phenyl)amino)-5-(3-(3-methyl-2-oxoimidazolidin-1-yl)piperidin-1-yl)pyrazine-2-carboxamide]",–
